In PubChem BioAssay AID330 (DTP/NCI, 2004) one finds T/C data, which are given here for 22 molecules.

This test deals with P388 leukemia ip, CD2F1 mice, survival T/C. The test can be described thus: NCI In Vivo Anticancer Drug Screen. Data for tumor model P388 Leukemia (intraperitoneal) in CD2F1 (CDF1) mice. The note with it: endpoint: median survival time, higher = longer survival. In a few lines:
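Mice carrying the transplanted tumor received test compound or vehicle. Survival was recorded in each group, and the value is the treated-group measurement divided by that of the vehicle-treated control group.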

Where [1] appears, read: dose: 100.0 mg/kg/injection, schedule: Q04DX002 (ip), vehicle: saline.
Setting [2] is: dose: 200.0 mg/kg/injection, schedule: Q04DX002 (ip), vehicle: saline.
[3] abbreviates: dose: 400.0 mg/kg/injection, schedule: Q04DX002 (ip), vehicle: saline.
[4] abbreviates: dose: 6.25 mg/kg/injection, schedule: Q01DX009 (ip), vehicle: saline with Tween-80.
[5] abbreviates: dose: 60.0 mg/kg/injection, schedule: Q01DX005 (ip), vehicle: saline.
Where [6] appears, read: dose: 120.0 mg/kg/injection, schedule: Q01DX005 (ip), vehicle: saline.
Setting [7] is: dose: 100.0 mg/kg/injection, schedule: Q01DX001 (ip), vehicle: Klucel (hydroxypropylcellulose) (HPC).
[8] abbreviates: dose: 200.0 mg/kg/injection, schedule: Q01DX001 (ip), vehicle: Klucel (hydroxypropylcellulose) (HPC).
Where [9] appears, read: dose: 400.0 mg/kg/injection, schedule: Q01DX001 (ip), vehicle: Klucel (hydroxypropylcellulose) (HPC).
Where [10] appears, read: dose: 60.0 mg/kg/injection, schedule: Q01DX005 (ip), vehicle: Klucel (hydroxypropylcellulose) (HPC).
[11] abbreviates: dose: 120.0 mg/kg/injection, schedule: Q01DX005 (ip), vehicle: Klucel (hydroxypropylcellulose) (HPC).
Setting [12] is: dose: 50.0 mg/kg/injection, schedule: Q01DX005 (ip), vehicle: saline with Tween-80.
The mark [13] stands for this setting: dose: 100.0 mg/kg/injection, schedule: Q01DX005 (ip), vehicle: saline with Tween-80.

Where “and” joins values, the source holds several entries; their conditions need not be identical. Equal values may be shown once. Toxic doses and inconclusive results are not listed.

In the case of `CCc1cc(/C=C2/OC(=O)c3ccccc32)cc(CC)c1O`, the T/C under setting [1] was 101 % of control, the T/C under setting [2] was 100 % of control and the T/C under setting [3] is 100 % of control.
In the case of `Cc1cc(/C=C2/OC(=O)c3ccccc32)cc(C)c1O`, the T/C reads like this: under setting [1], 94 % of control; under setting [2], 97 % of control; under setting [3], 97 % of control.
For `CCCC(=O)c1ccco1`, the T/C is 88 % of control under setting [4]; 95 % of control (dose: 12.5 mg/kg/injection, schedule: Q01DX009 (ip), vehicle: saline with Tween-80); 95 % of control (dose: 25.0 mg/kg/injection, schedule: Q01DX009 (ip), vehicle: saline with Tween-80).
Regarding `CN(C)CCC(=O)C(=Cc1ccccc1Cl)C(=O)CCN(C)C`, the T/C is, setting by setting: under setting [5], 105 % of control; under setting [6], 106 % of control; (dose: 240.0 mg/kg/injection, schedule: Q01DX005 (ip), vehicle: saline) 105 % of control.
For the molecule `O=C1CN(C2CC2N2CC(=O)OC(=O)C2)CC(=O)O1` (stereo not given), the T/C is 97 % of control (dose: 100.0 mg/kg/injection, schedule: Q04DX003 (ip), vehicle: saline with Tween-80) and 89 % of control (dose: 400.0 mg/kg/injection, schedule: Q04DX003 (ip), vehicle: saline with Tween-80).
With `CC(C)[C@](O)(C(=O)OCC1CC[N+]2([O-])CC[C@@H](O)C12)[C@H](C)O` (stereo not given in full), the T/C is, setting by setting: (dose: 187.5 mg/kg/injection, schedule: Q01DX009 (ip), vehicle: saline) 94 % of control; (dose: 375.0 mg/kg/injection, schedule: Q01DX009 (ip), vehicle: saline) 106 % of control; (dose: 750.0 mg/kg/injection, schedule: Q01DX009 (ip), vehicle: saline) 95 % of control; (dose: 1500.0 mg/kg/injection, schedule: Q01DX009 (ip), vehicle: saline) 106 % of control.
In the case of `COC(=O)C(Cc1ccccc1C(N)=O)(OC)OC`, the T/C runs as follows: (dose: 50.0 mg/kg/injection, schedule: Q01DX005 (ip), vehicle: saline) 98 % of control; (dose: 100.0 mg/kg/injection, schedule: Q01DX005 (ip), vehicle: saline) 99 % of control; (dose: 200.0 mg/kg/injection, schedule: Q01DX005 (ip), vehicle: saline) 98 % of control.
Turning to `CN(C)CC(O)c1ccc2ccc3ccccc3c2c1` (stereo not given), the T/C was 102 % of control under setting [7], 101 % of control under setting [8] and 101 % of control under setting [9].
Regarding `CCN(CC)c1ccc(NC(=S)NN)cc1`, the T/C by setting is: under setting [10], 100 % of control; under setting [11], 97 % of control.
For the molecule `CNS(=O)(=O)c1ccc2c(c1)nc(SC)n2C`, the T/C by setting is: (dose: 100.0 mg/kg/injection, schedule: Q01DX009 (ip), vehicle: saline with Tween-80) 100 % of control; (dose: 200.0 mg/kg/injection, schedule: Q01DX009 (ip), vehicle: saline with Tween-80) 100 % of control; (dose: 400.0 mg/kg/injection, schedule: Q01DX009 (ip), vehicle: saline with Tween-80) 95 % of control.
Turning to `Nc1ncnc2c1nc(F)n2C1OC(CO)C(O)C1O` (stereo not given), the T/C by setting is: (dose: 6.25 mg/kg/injection, schedule: Q01DX005 (ip), vehicle: saline) 107 % of control; (dose: 12.5 mg/kg/injection, schedule: Q01DX005 (ip), vehicle: saline) 108 % of control; (dose: 25.0 mg/kg/injection, schedule: Q01DX005 (ip), vehicle: saline) 108 % of control.
With `Cc1c(N=Nc2ccccc2[N+](=O)[O-])c(-c2ccccc2)nn1C(N)=S`, the T/C runs as follows: under setting [7], 114 % of control; under setting [8], 114 % of control; under setting [9], 108 % of control.
As for `NS(=O)(=O)c1ccc(N=c2c3ccccc3n(Cc3ccccc3)c3ccccc23)cc1`, the T/C was 88 % of control under setting [12] and 94 % of control under setting [13].
For `O=C(Nc1cccc(C(F)(F)F)c1)C(Cl)=C(Cl)Cl`, the T/C is 103 % of control under setting [10]; 111 % of control under setting [11]; 95 % of control (dose: 240.0 mg/kg/injection, schedule: Q01DX005 (ip), vehicle: Klucel (hydroxypropylcellulose) (HPC)).
For the molecule `O=S1(=O)O[C@H]2CCCC[C@H]2O1`, the T/C (dose: 1.75 mg/kg/injection, schedule: Q01DX009 (ip), vehicle: Klucel (hydroxypropylcellulose) (HPC)) is 100 % of control; the T/C (dose: 3.5 mg/kg/injection, schedule: Q01DX009 (ip), vehicle: Klucel (hydroxypropylcellulose) (HPC)) was 98 % of control; the T/C (dose: 7.0 mg/kg/injection, schedule: Q01DX009 (ip), vehicle: Klucel (hydroxypropylcellulose) (HPC)) is 101 % of control; the T/C (dose: 14.0 mg/kg/injection, schedule: Q01DX009 (ip), vehicle: Klucel (hydroxypropylcellulose) (HPC)) was 98 % of control.
`Nc1ncnc2nc(CO)[nH]c12`: the T/C (dose: 0.78 mg/kg/injection, schedule: Q01DX009 (ip), vehicle: saline with Tween-80) is 100 % of control; the T/C (dose: 1.56 mg/kg/injection, schedule: Q01DX009 (ip), vehicle: saline with Tween-80) is 97 % of control; the T/C (dose: 3.13 mg/kg/injection, schedule: Q01DX009 (ip), vehicle: saline with Tween-80) was 93 % of control; the T/C under setting [4] was 91 % of control.
On to `CCCCNC(=O)OCCN(C)CCOC(=O)NCCCC`, for which the T/C under setting [5] was 107 % of control and the T/C under setting [6] was 101 % of control.
As for `CN(C)CCNc1ccc(O)c2c1C(=O)c1ccccc1C2=O`, the T/C is, setting by setting: (dose: 5.0 mg/kg/injection, schedule: Q01DX009 (ip), vehicle: acid diluted with saline) 104 % of control; (dose: 10.0 mg/kg/injection, schedule: Q01DX009 (ip), vehicle: acid diluted with saline) 100 % of control; (dose: 20.0 mg/kg/injection, schedule: Q01DX009 (ip), vehicle: acid diluted with saline) 100 % of control; (dose: 20.0 mg/kg/injection, schedule: Q01DX009 (ip), vehicle: distilled water + Tween-80) 110 % of control; (dose: 40.0 mg/kg/injection, schedule: Q01DX009 (ip), vehicle: acid diluted with saline) 124 % of control; (dose: 40.0 mg/kg/injection, schedule: Q01DX009 (ip), vehicle: distilled water + Tween-80) 117 % of control. In addition, the T/C was 153 % of control (dose: 80.0 mg/kg/injection, schedule: Q01DX009 (ip), vehicle: acid diluted with saline) and 153 % of control (dose: 160.0 mg/kg/injection, schedule: Q01DX009 (ip), vehicle: distilled water + Tween-80).
On to `CCCC(=O)OCc1cc(=O)n(C)c2c3c4c(cc12)c(C)cc(=O)n4CO3`, for which the T/C is 157 % of control (dose: 12.5 mg/kg/injection, schedule: Q01DX009 (ip), vehicle: other); 151 % of control and 171 % of control (dose: 25.0 mg/kg/injection, schedule: Q01DX009 (ip), vehicle: other); 163 % of control (dose: 50.0 mg/kg/injection, schedule: Q01DX009 (ip), vehicle: other).
On to `CON1C(=O)C(c2cccs2)=C2SCC=C21`, for which the T/C was 107 % of control (dose: 15.0 mg/kg/injection, schedule: Q01DX005 (ip), vehicle: saline with Tween-80); 112 % of control (dose: 30.0 mg/kg/injection, schedule: Q01DX005 (ip), vehicle: saline with Tween-80); 112 % of control and 114 % of control (dose: 60.0 mg/kg/injection, schedule: Q01DX005 (ip), vehicle: saline with Tween-80); 112 % of control (dose: 120.0 mg/kg/injection, schedule: Q01DX005 (ip), vehicle: saline with Tween-80).
Consider `COc1ccccc1-n1c(=S)n(-c2ccccc2C)c2nc3ccccc3nc1/c2=N\Nc1ccccn1`, for which the T/C is, setting by setting: under setting [12], 100 % of control; under setting [13], 102 % of control.
Regarding `O=C(CCN1C(=O)c2ccccc2C1=O)Nc1ncc[nH]1`, the T/C was 98 % of control (dose: 8.75 mg/kg/injection, schedule: Q01DX005 (ip), vehicle: Klucel (hydroxypropylcellulose) (HPC)); 98 % of control (dose: 17.5 mg/kg/injection, schedule: Q01DX005 (ip), vehicle: Klucel (hydroxypropylcellulose) (HPC)); 96 % of control (dose: 35.0 mg/kg/injection, schedule: Q01DX005 (ip), vehicle: Klucel (hydroxypropylcellulose) (HPC)).
